Test results published in patent US20210077382A1, “COMPOSITIONS, DEVICES, AND METHODS FOR THE TREATMENT OF OPIOID-RECEPTOR-MEDIATED CONDITIONS” (Opiant Phamaceuticals, Inc., priority 2016, published 2021).

Test: Clinical pharmacokinetic crossover study of IN, IM and oral naltrexone; plasma naltrexone and 6β-naltrexol by LC-MS/MS
From the text: Study Goals. […] Secondary endpoints included adverse events (AEs), vital signs (heart rate, sitting blood pressure, and respiration rate), electrocardiogram (ECG), clinical laboratory changes and nasal irritation using the nasal irritation scale.
Study design. […] This was an in-patient open-label, crossover study involving approximately 14 healthy volunteers. […] Subjects stayed in the in-patient facility for 13 days to complete the entire study. Subjects were called 3 to 5 days after discharge to inquire concerning AEs and concomitant medications since discharge. Informed consent was obtained from all subjects, and all were screened for eligibility to participate in the study, including medical history, physical examination, clinical chemistry, coagulation markers, hematology, infectious disease serology, urinalysis, urine drug and alcohol toxicology screen, vital signs and ECG.
On days of study drug administration, a 12-lead ECG was performed approximately 1 hour prior to dosing and at approximately 1 and 4 hours post-dose. Vital signs were measured pre-dose and about 1 and 4 hours post-dose.
Study Drugs and Dosing. […] The IN (40 mg/mL) formulations were made by the staff pharmacist at Vince & Associates; the vehicle for the IN formulations was sterile water for injection. The IM formulation (2 mg/mL) was made by the staff pharmacist at Vince & Associates; the vehicle was sterile saline for injection.
Subjects stayed in the in-patient facility for 13 days to complete the entire study and were discharged 2 days after the fourth dose.
PK Assessments. […] Plasma was separated from whole blood and stored frozen at […] until assayed.
Analysis. […] Dose-adjusted values for AUCs and Cmax were calculated. The relative extent of IN and PO absorption (IN and PO versus IM) will be estimated from the dose-corrected AUCs.

[1] = naltrexone 2 mg IM, N = 10, listed as 6β-Naltrexol
[2] = naltrexone 4 mg IN plus […] Intravail, N = 12

Oc1ccc2c3c1O[C@H]1[C@H](O)CC[C@@]4(O)[C@@H](C2)N(CC2CC2)CC[C@]314 [6β-naltrexol]
Difference between the sexes for the PK parameters (IN, IM or PO administration, except naltrexone Cmax after 4 mg IN): no clinically meaningful difference | Mean Cmax of 6β-naltrexol (after the IN administration of naltrexone): approximately 3 ng/mL | Ratio of AUC0-inf for 6β-naltrexol compared to that of naltrexone (after the oral dose): 25 | AUC0-inf of 6β-naltrexol, mean (CV %) (naltrexone 2 mg IM, N = 10): 27.1 ng·h/mL | AUC0-inf/Dose of 6β-naltrexol, mean (CV %) (naltrexone 2 mg IM, N = 10): 15.0 (19.0) h · ng/mL/mg | AUC0-t of 6β-naltrexol, mean (CV %) (naltrexone 2 mg IM, N = 10): 25.1 (18.3) h · ng/mL | AUC0-t/Dose of 6β-naltrexol, mean (CV %) (naltrexone 2 mg IM, N = 10): 13.9 (18.3) h · ng/mL/mg | AUCextrap of 6β-naltrexol, mean (CV %) (naltrexone 2 mg IM, N = 10): 7.02 (29.4) % | Cmax of 6β-naltrexol, mean (CV %) (naltrexone 2 mg IM, N = 10): 1.5 ng/mL | Cmax/Dose of 6β-naltrexol, mean (CV %) (naltrexone 2 mg IM, N = 10): 0.838 ng/mL/mg | Tmax of 6β-naltrexol, median (minimum, maximum) (naltrexone 2 mg IM, N = 10): 3.00 h | t1/2 of 6β-naltrexol, mean (CV %) (naltrexone 2 mg IM, N = 10): 12.4 (13.2) h | λz of 6β-naltrexol, mean (CV %) (naltrexone 2 mg IM, N = 10): 0.0570 (14.8) 1/h | Cmax of 6β-naltrexol, mean (CV %) [1]: 1.52 (26.8) ng/mL | Cmax/Dose of 6β-naltrexol, mean (CV %) [1]: 0.838 (26.8) ng/mL/mg | Mean concentration of 6β-naltrexol (naltrexone 2 mg IN, hour 0): 0.0661 ng/mL | Mean concentration of 6β-naltrexol (naltrexone 2 mg IN, hour 0.042): 0.0627 ng/mL | Mean concentration of 6β-naltrexol (naltrexone 2 mg IN, hour 0.083): 0.12 ng/mL | Mean concentration of 6β-naltrexol (naltrexone 2 mg IN, hour 0.17): 0.283 ng/mL | Mean concentration of 6β-naltrexol (naltrexone 2 mg IN, hour 0.25): 0.454 ng/mL | Mean concentration of 6β-naltrexol (naltrexone 2 mg IN, hour 0.33): 0.677 ng/mL | Mean concentration of 6β-naltrexol (naltrexone 2 mg IN, hour 0.5): 0.852 ng/mL | Mean concentration of 6β-naltrexol (naltrexone 2 mg IN, hour 0.75): 1.08 ng/mL | Mean concentration of 6β-naltrexol (naltrexone 2 mg IN, hour 1): 1.1 ng/mL | Mean concentration of 6β-naltrexol (naltrexone 2 mg IN, hour 2): 1.39 ng/mL | Mean concentration of 6β-naltrexol (naltrexone 2 mg IN, hour 3): 1.48 ng/mL | Mean concentration of 6β-naltrexol (naltrexone 2 mg IN, hour 4): 1.46 ng/mL | Mean concentration of 6β-naltrexol (naltrexone 2 mg IN, hour 6): 1.3 ng/mL | Mean concentration of 6β-naltrexol (naltrexone 2 mg IN, hour 8): 1.08 ng/mL | Mean concentration of 6β-naltrexol (naltrexone 2 mg IN, hour 12): 0.81 ng/mL | Mean concentration of 6β-naltrexol (naltrexone 2 mg IN, hour 16): 0.595 ng/mL | Mean concentration of 6β-naltrexol (naltrexone 2 mg IN, hour 24): 0.365 ng/mL | Mean concentration of 6β-naltrexol (naltrexone 2 mg IN, hour 30): 0.255 ng/mL | Mean concentration of 6β-naltrexol (naltrexone 2 mg IN, hour 36): 0.18 ng/mL | Mean concentration of 6β-naltrexol (naltrexone 2 mg IN, hour 48): 0.106 ng/mL | Mean concentration of 6β-naltrexol (naltrexone 4 mg IN + […] Intravail, hour 0): 0.0682 ng/mL | Mean concentration of 6β-naltrexol (naltrexone 4 mg IN + […] Intravail, hour 0.042): 0.082 ng/mL | Mean concentration of 6β-naltrexol (naltrexone 4 mg IN + […] Intravail, hour 0.083): 0.238 ng/mL | Mean concentration of 6β-naltrexol (naltrexone 4 mg IN + […] Intravail, hour 0.17): 0.994 ng/mL | Mean concentration of 6β-naltrexol (naltrexone 4 mg IN + […] Intravail, hour 0.25): 1.86 ng/mL | Mean concentration of 6β-naltrexol (naltrexone 4 mg IN + […] Intravail, hour 0.33): 2.55 ng/mL | Mean concentration of 6β-naltrexol (naltrexone 4 mg IN + […] Intravail, hour 0.5): 2.84 ng/mL | Mean concentration of 6β-naltrexol (naltrexone 4 mg IN + […] Intravail, hour 0.75): 2.93 ng/mL | Mean concentration of 6β-naltrexol (naltrexone 4 mg IN + […] Intravail, hour 1): 2.73 ng/mL | Mean concentration of 6β-naltrexol (naltrexone 4 mg IN + […] Intravail, hour 2): 2.9 ng/mL | Mean concentration of 6β-naltrexol (naltrexone 4 mg IN + […] Intravail, hour 3): 2.61 ng/mL | Mean concentration of 6β-naltrexol (naltrexone 4 mg IN + […] Intravail, hour 4): 2.45 ng/mL | Mean concentration of 6β-naltrexol (naltrexone 4 mg IN + […] Intravail, hour 6): 2.03 ng/mL | Mean concentration of 6β-naltrexol (naltrexone 4 mg IN + […] Intravail, hour 8): 1.67 ng/mL | Mean concentration of 6β-naltrexol (naltrexone 4 mg IN + […] Intravail, hour 12): 1.25 ng/mL | Mean concentration of 6β-naltrexol (naltrexone 4 mg IN + […] Intravail, hour 16): 0.923 ng/mL | Mean concentration of 6β-naltrexol (naltrexone 4 mg IN + […] Intravail, hour 24): 0.618 ng/mL | Mean concentration of 6β-naltrexol (naltrexone 4 mg IN + […] Intravail, hour 30): 0.457 ng/mL | Mean concentration of 6β-naltrexol (naltrexone 4 mg IN + […] Intravail, hour 36): 0.312 ng/mL | Mean concentration of 6β-naltrexol (naltrexone 4 mg IN + […] Intravail, hour 48): 0.175 ng/mL | AUC0-inf of 6β-naltrexol, mean (CV %) [2]: 46.3 (18.3) h · ng/mL | AUC0-inf/Dose of 6β-naltrexol, mean (CV %) [2]: 12.8 (18.3) h · ng/mL/mg | AUC0-t of 6β-naltrexol, mean (CV %) [2]: 43.0 (17.4) h · ng/mL | AUC0-t/Dose of 6β-naltrexol, mean (CV %) [2]: 11.9 (17.4) h · ng/mL/mg | AUCextrap of 6β-naltrexol, mean (CV %) [2]: 7.02 (37.3) % | Cmax of 6β-naltrexol, mean (CV %) [2]: 3.29 (23.7) ng/mL | Cmax/Dose of 6β-naltrexol, mean (CV %) [2]: 0.908 (23.7) ng/mL/mg | Tmax of 6β-naltrexol, median (minimum, maximum) [2]: 0.75 h | t1/2 of 6β-naltrexol, mean (CV %) [2]: 12.8 (14.6) h
